Here are results for 10 compounds from ChEMBL document CHEMBL1201862, “PubChem BioAssay data set” (2004).

The structures appear in SMILES notation.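 Results reflect a 48-hour exposure of cells in 96-well plates to compound at five concentrations. Here, GI50 denotes the concentration required for 50% inhibition of growth.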 The source made the active and inactive calls. Cut-off read from the data, not from the text of the source: active = GI50 up to about 1.1 µM and inactive = higher. A value given as a limit tells only on which side of the number the result lay.

Among the test systems are K562; OVCAR-3; HOP-92; SK-OV-3; SNB-75; TK-10; Hs-578T; A549; ACHN; HCT-116; MDA-N; SF-268; SF-539; M14; SR; RXF 393; HL-60; SN12C; SK-MEL-2; A498.
What all share (assay): NCI anticancer screen, dose series, 48 h

On to `N#Cc1c(Nc2ccccc2)[n+]([O-])c2ccc(Cl)cc2[n+]1[O-]`, for which the GI50 with K562 is 3.03 µM (inactive); with OVCAR-3, 2.99 µM (inactive); in the assay with HOP-92, 1.73 µM (inactive); in the assay on SK-OV-3 it was 21.2 µM (inactive); in the assay with SNB-75, 25.9 µM (inactive); with TK-10, 4.06 µM (inactive). Moreover, the GI50 is 16.6 µM (inactive) in the assay with Hs-578T; 9.86 µM (inactive) in the assay with A549; 2.85 µM (inactive) with ACHN; 3.88 µM (inactive) in the assay with HCT-116; 11 µM (inactive) in the assay with MDA-N; 4.38 µM (inactive) in the assay on SF-268. For the same compound, the GI50 with SF-539 was 5.22 µM (inactive); in the assay on M14, 7.57 µM (inactive); in the assay with SR it was 3.16 µM (inactive); in the assay on RXF 393, 9.77 µM (inactive); in the assay on HL-60, 2.01 µM (inactive); in the assay on SN12C, 4.49 µM (inactive). Besides, the figures for the GI50 in the assay with SK-MEL-2 and in the assay on A498 were 18 µM (inactive) and 7.69 µM (inactive), respectively.

For the compound `CC1(C)C=C(/C=C2/N(S(=O)(=O)C(F)(F)F)C(/C=C3/N(S(=O)(=O)C(F)(F)F)C(C)(C#N)CC3(C)C)=CC2(C)C)N=C1/C=C1/CC(C)(C)C(=O)N1` (stereo not given), the GI50 is 3.11 µM (inactive) in the assay with K562; 7.62 µM (inactive) in the assay with OVCAR-3; 24.7 µM (inactive) with HOP-92; 45.7 µM (inactive) in the assay on SK-OV-3; 61.5 µM (inactive) in the assay on SNB-75; 71.9 µM (inactive) in the assay on TK-10. The GI50 is 16.2 µM (inactive) in the assay on Hs-578T; 32.8 µM (inactive) in the assay with A549; 23.7 µM (inactive) with ACHN; 3.73 µM (inactive) with HCT-116; 21.4 µM (inactive) in the assay on MDA-N; 5.79 µM (inactive) with SF-268. The GI50 in the assay with SF-539 was 24.8 µM (inactive); in the assay on M14 it was 29.3 µM (inactive); with SR, 2.8 µM (inactive); with RXF 393, 18.6 µM (inactive); with HL-60, 1.41 µM (inactive); in the assay on SN12C, 22.3 µM (inactive). For the same compound, the GI50 is 29.5 µM (inactive) with SK-MEL-2 and 55.6 µM (inactive) in the assay with A498.

For `COC(=O)/C=C(/C(=O)OC)c1cc2ccc3c([nH]c4ccccc43)c(C)c-2c1`, the GI50 in the assay with K562 was 2.54 µM (inactive); with OVCAR-3, 3.4 µM (inactive); in the assay with HOP-92, 1.21 µM (inactive); in the assay with SK-OV-3 it was 7.69 µM (inactive); in the assay with SNB-75 it was 5.26 µM (inactive); in the assay with TK-10, 15.2 µM (inactive). Also, the GI50 in the assay with Hs-578T was 3.41 µM (inactive); in the assay on A549, 4.73 µM (inactive); in the assay with ACHN, 6.61 µM (inactive); in the assay with HCT-116, 4.49 µM (inactive); in the assay on MDA-N it was 2.9 µM (inactive); with SF-268, 4.26 µM (inactive). The GI50 with SF-539 was 11.4 µM (inactive); with M14, 4.37 µM (inactive); with SR, 2.74 µM (inactive); with RXF 393, 7.31 µM (inactive); in the assay with HL-60, 3.15 µM (inactive); in the assay with SN12C it was 10.1 µM (inactive). The results for the GI50 with SK-MEL-2 and with A498 were 7.5 µM (inactive) and 8.04 µM (inactive), respectively.

With `CC1=CC(=O)c2c(O)cccc2C1=O` [PLUMBAGIN], the GI50 in the assay on K562 is 0.391 µM (active); in the assay on OVCAR-3 it was 1.03 µM (active); in the assay with HOP-92, 0.465 µM (active); with SK-OV-3 it was 14.1 µM (inactive); in the assay with SNB-75, 5.51 µM (inactive); in the assay on TK-10, 1.71 µM (inactive). In addition, the GI50 with Hs-578T was 2.91 µM (inactive); with A549 it was 11.5 µM (inactive); in the assay on ACHN it was 1.6 µM (inactive); in the assay with HCT-116, 1.66 µM (inactive); in the assay on MDA-N, 1.72 µM (inactive); in the assay on SF-268 it was 2.17 µM (inactive). Also, the GI50 is 1.91 µM (inactive) in the assay on SF-539; 1.86 µM (inactive) in the assay on M14; 1.69 µM (inactive) in the assay on SR; 1.64 µM (inactive) in the assay on RXF 393; 0.152 µM (active) with HL-60; 1.94 µM (inactive) with SN12C. The GI50 was 1.85 µM (inactive) in the assay with SK-MEL-2 and 5.86 µM (inactive) with A498.

For the compound `C=C1CCc2ccccc2C1=O`, the GI50 in the assay with K562 is 37.9 µM (inactive); in the assay on OVCAR-3, > 100 µM (inactive); in the assay with HOP-92, > 100 µM (inactive); in the assay with SK-OV-3, > 100 µM (inactive); in the assay with SNB-75, > 100 µM (inactive); with TK-10, > 100 µM (inactive). Moreover, the GI50 was > 100 µM (inactive) in the assay on Hs-578T; > 100 µM (inactive) with A549; > 100 µM (inactive) in the assay with ACHN; > 100 µM (inactive) in the assay with HCT-116; 43.1 µM (inactive) in the assay on MDA-N; > 100 µM (inactive) in the assay on SF-268. The GI50 was > 100 µM (inactive) in the assay on SF-539; > 100 µM (inactive) with M14; 19.2 µM (inactive) with SR; > 100 µM (inactive) in the assay with RXF 393; > 100 µM (inactive) with HL-60; > 100 µM (inactive) in the assay with SN12C. Moreover, the GI50 in the assay with SK-MEL-2 and in the assay with A498 was > 100 µM (inactive) each time.

With `Cc1nc(O)nc(N/N=C/c2ccc(Cl)c(Cl)c2)c1C(=O)Nc1ccc(Cl)c(Cl)c1`, the GI50 is 11.5 µM (inactive) in the assay on K562; 9.62 µM (inactive) with OVCAR-3; 17.9 µM (inactive) in the assay on HOP-92; 14 µM (inactive) in the assay with SK-OV-3; 12.3 µM (inactive) in the assay with SNB-75; 11.5 µM (inactive) with TK-10. Also, the GI50 in the assay with Hs-578T was 10.5 µM (inactive); in the assay with A549, 14 µM (inactive); in the assay with ACHN it was > 38.6 µM (inactive); with HCT-116, 6.75 µM (inactive); in the assay on MDA-N, 15.7 µM (inactive); with SF-268 it was 10.5 µM (inactive). Moreover, the GI50 in the assay with SF-539 is 15.7 µM (inactive); in the assay on M14, 5.22 µM (inactive); in the assay on SR, 36.3 µM (inactive); in the assay on RXF 393, 15.2 µM (inactive); in the assay with HL-60 it was 45.8 µM (inactive); with SN12C, 18.1 µM (inactive). The values for the GI50 with SK-MEL-2 and in the assay on A498 were 17 µM (inactive) and 3.12 µM (inactive), respectively.

With `CC(=O)c1sc2[n+](c1C)C(=O)/C(=C\c1ccccc1Cl)S2`, the GI50 with K562 is 25.5 µM (inactive); in the assay on OVCAR-3 it was 18 µM (inactive); in the assay on HOP-92, 56.2 µM (inactive); in the assay on SK-OV-3, 25.1 µM (inactive); with SNB-75 it was 26.8 µM (inactive); in the assay on TK-10 it was 26.9 µM (inactive). For the same compound, the GI50 in the assay on Hs-578T was 47.8 µM (inactive); in the assay on A549, 19.6 µM (inactive); in the assay on ACHN, 20.5 µM (inactive); in the assay with HCT-116, 20.7 µM (inactive); in the assay with MDA-N, 19.4 µM (inactive); in the assay on SF-268, 23.2 µM (inactive). The GI50 is 21.8 µM (inactive) with SF-539; 18.6 µM (inactive) in the assay with M14; 18.3 µM (inactive) in the assay on SR; 26.1 µM (inactive) in the assay on RXF 393; 20.7 µM (inactive) in the assay on HL-60; 34.2 µM (inactive) in the assay on SN12C. Also, the GI50 is 24 µM (inactive) with SK-MEL-2 and 29.7 µM (inactive) in the assay on A498.

In the case of `COc1cc2cc3c4c(cc(OC)c(OC)c4c2cc1OC)CCN3C`, the GI50 is 6.19 µM (inactive) with K562; 8.05 µM (inactive) in the assay with OVCAR-3; 9.93 µM (inactive) in the assay on HOP-92; 9.18 µM (inactive) in the assay with SK-OV-3; 8.13 µM (inactive) in the assay on SNB-75; 4.42 µM (inactive) in the assay with TK-10. The GI50 in the assay with Hs-578T is 2.63 µM (inactive); in the assay on A549 it was 9.53 µM (inactive); in the assay with ACHN it was 3.66 µM (inactive); in the assay with HCT-116, 5.96 µM (inactive); with MDA-N, 13.1 µM (inactive); in the assay on SF-268, 8.53 µM (inactive). The GI50 in the assay on SF-539 was 9.25 µM (inactive); in the assay on M14 it was 6.9 µM (inactive); in the assay on SR, 1.25 µM (inactive); with RXF 393 it was 1.83 µM (inactive); in the assay on HL-60, 5.3 µM (inactive); in the assay with SN12C, 7.38 µM (inactive). The GI50 with SK-MEL-2 was 10.3 µM (inactive); in the assay on A498 it was 6.84 µM (inactive).

As to `CN(C)/C=N\c1cccc2cnccc12`, the GI50 was > 100 µM (inactive) in the assay with K562; 43.2 µM (inactive) with OVCAR-3; > 100 µM (inactive) with HOP-92; > 100 µM (inactive) in the assay with SK-OV-3; 44.8 µM (inactive) in the assay on SNB-75; > 100 µM (inactive) in the assay on TK-10. Besides, the GI50 with Hs-578T, with A549, in the assay on ACHN, in the assay on HCT-116, with MDA-N and in the assay on SF-268 was > 100 µM (inactive) each time. Moreover, the GI50 with SF-539, with M14, with SR, in the assay with RXF 393, in the assay with HL-60 and in the assay on SN12C was > 100 µM (inactive) throughout. Also, the GI50 with SK-MEL-2 and with A498 was > 100 µM (inactive) each time.

On to `O=S(=O)(O)c1ccc2c(/N=N/c3ccccc3)c(O)c(S(=O)(=O)O)cc2c1`, for which the GI50 in the assay with K562, in the assay on OVCAR-3, with HOP-92, with SK-OV-3, in the assay on SNB-75 and with TK-10 was > 100 µM (inactive) each time. The GI50 in the assay with Hs-578T, in the assay with A549, with ACHN, with HCT-116, with MDA-N and with SF-268 was > 100 µM (inactive) in each case. Also, the GI50 in the assay with SF-539, in the assay on M14, in the assay with SR, in the assay with RXF 393, with HL-60 and in the assay with SN12C was > 100 µM (inactive) in each case. The GI50 in the assay on SK-MEL-2 and with A498 was > 100 µM (inactive) each time.
